Measurements taken from patent publication US12077503B2, “Substituted cyclic amides and their use as herbicides” (FMC CORPORATION, priority 2015, dated 2024).
Where two headings read alike, the source gives them in different places.

Columns and labels:
Type in all cases: in vivo
[1] = test system: barnyardgrass (Echinochloa crus-galli); test: Test A preemergence; settings: Echinochloa crus-galli, pre-emergence, 240 h, preemergence, 0 to 100 scale where 0 is no effect and 100 is complete control, read-out: Barnyardgrass plant response rating; for pest or weed control at 125 g/ha: 125 g ai/ha, visual injury rating, approximately 10 d; for pest or weed control at 500 g/ha: 500 g ai/ha
Procedure, shortened: (§1)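 Visual injury, scored on a 0–100 scale relative to untreated controls, was recorded about 10 d after application. Treatments were a preemergence soil spray over planted seeds or a postemergence spray on plants at the one- to two-leaf stage, 2 to 10 cm tall, all in loam soil–sand blend in the greenhouse.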

[2] = test system: ryegrass, Italian (Italian ryegrass, Lolium multiflorum); test: Test A preemergence; settings: Lolium multiflorum, pre-emergence, 240 h, preemergence, 0 to 100 scale where 0 is no effect and 100 is complete control, read-out: Ryegrass, Italian plant response rating; for pest or weed control at 125 g/ha: 125 g ai/ha, visual injury rating, approximately 10 d; for pest or weed control at 500 g/ha: 500 g ai/ha
Procedure, shortened: as §1

Kochia (Kochia scoparia) [3] = test: Test A preemergence; settings: Bassia scoparia, pre-emergence, 240 h, preemergence, 0 to 100 scale where 0 is no effect and 100 is complete control, read-out: Kochia plant response rating; for pest or weed control at 125 g/ha: 125 g ai/ha, visual injury rating, approximately 10 d; for pest or weed control at 500 g/ha: 500 g ai/ha
Procedure, shortened: as §1

[4] = test system: ragweed (common ragweed, Ambrosia elatior); test: Test A preemergence; settings: Ambrosia artemisiifolia, pre-emergence, 240 h, preemergence, 0 to 100 scale where 0 is no effect and 100 is complete control, read-out: Ragweed plant response rating; for pest or weed control at 125 g/ha: 125 g ai/ha, visual injury rating, approximately 10 d; for pest or weed control at 500 g/ha: 500 g ai/ha
Procedure, shortened: as §1

[5] = test system: pigweed (Amaranthus retroflexus); test: Test A preemergence; settings: Amaranthus retroflexus, pre-emergence, 240 h, preemergence, 0 to 100 scale where 0 is no effect and 100 is complete control, read-out: Pigweed plant response rating; for pest or weed control at 125 g/ha: 125 g ai/ha, visual injury rating, approximately 10 d; for pest or weed control at 500 g/ha: 500 g ai/ha
[6] = test system: giant foxtail (Setaria faberii); test: Test A preemergence; settings: Setaria faberi, pre-emergence, 240 h, preemergence, 0 to 100 scale where 0 is no effect and 100 is complete control, read-out: Foxtail, Giant plant response rating; for pest or weed control at 125 g/ha: 125 g ai/ha, visual injury rating, approximately 10 d; for pest or weed control at 500 g/ha: 500 g ai/ha
Procedure, shortened: as §1

[7] = test system: barnyardgrass (Echinochloa crus-galli); test: Test B flooded paddy test; settings: Echinochloa crus-galli, 250 g ai/ha, Flood; 0 to 100 scale where 0 is no effect and 100 is complete control; read-out: Barnyardgrass plant response rating
Procedure, shortened: (§2)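 Percent control, visually estimated after 13–15 d in the greenhouse on a 0–100 basis, compares treated pots with untreated ones; compound was put into paddy water 3 cm above the soil when plants had two leaves.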

[8] = test system: ducksalad (Heteranthera limosa); test: Test B flooded paddy test; settings: Heteranthera limosa, 250 g ai/ha, Flood; 0 to 100 scale where 0 is no effect and 100 is complete control; read-out: Ducksalad plant response rating
Procedure, shortened: as §2

[9] = test system: sedge, umbrella (small-flower umbrella sedge, Cyperus difformis); test: Test B flooded paddy test; settings: Cyperus difformis, 250 g ai/ha, Flood; 0 to 100 scale where 0 is no effect and 100 is complete control; read-out: Sedge, Umbrella plant response rating
Procedure, shortened: as §2

rice (Oryra sativa) = test: Test B flooded paddy test; settings: Oryza sativa, 250 g ai/ha, Flood; 0 to 100 scale where 0 is no effect and 100 is complete control; read-out: Rice plant response rating
Procedure, shortened: as §2

[10] = test system: wheat (Triticum aestivum); test: Test A postemergence; settings: Triticum aestivum, post-emergence, 240 h; for plant injury at 500 g/ha: 500 g ai/ha
Procedure, shortened: as §1

[11] = test system: Galium (catchweed bedstraw, Galium aparine); test: Test A postemergence; settings: Galium, post-emergence, 240 h; for pest or weed control at 125 g/ha: 125 g ai/ha, visual injury vs untreated controls after approx. 10 d, 0 = no effect, 100 = complete control, read-out: Galium plant response rating (0 to 100 scale); for pest or weed control at 500 g/ha: 500 g ai/ha
Procedure, shortened: as §1

Kochia (Kochia scoparia) [12] = test: Test A postemergence; settings: Bassia scoparia, post-emergence, 240 h; for pest or weed control at 125 g/ha: 125 g ai/ha, visual injury vs untreated controls after approx. 10 d, 0 = no effect, 100 = complete control, read-out: Kochia plant response rating (0 to 100 scale); for pest or weed control at 500 g/ha: 500 g ai/ha
Procedure, shortened: as §1

[13] = test system: pigweed (Amaranthus retroflexus); test: Test A postemergence; settings: Amaranthus retroflexus, post-emergence, 240 h; for pest or weed control at 125 g/ha: 125 g ai/ha, visual injury vs untreated controls after approx. 10 d, 0 = no effect, 100 = complete control, read-out: Pigweed plant response rating (0 to 100 scale); for pest or weed control at 500 g/ha: 500 g ai/ha
Procedure, shortened: as §1

[14] = test system: giant foxtail (Setaria faberii); test: Test A postemergence; settings: Setaria faberi, post-emergence, 240 h; for pest or weed control at 125 g/ha: 125 g ai/ha, visual injury vs untreated controls after approx. 10 d, 0 = no effect, 100 = complete control, read-out: Foxtail, Giant plant response rating (0 to 100 scale); for pest or weed control at 500 g/ha: 500 g ai/ha
Procedure, shortened: as §1

Structure (SMILES)	pest or weed control at 125 g/ha [1]	pest or weed control at 500 g/ha [1]	pest or weed control at 125 g/ha [2]	pest or weed control at 500 g/ha [2]	pest or weed control at 125 g/ha (Kochia (Kochia scoparia) [3])	pest or weed control at 500 g/ha (Kochia (Kochia scoparia) [3])	pest or weed control at 125 g/ha [4]	pest or weed control at 500 g/ha [4]	pest or weed control at 125 g/ha [5]	pest or weed control at 500 g/ha [5]	pest or weed control at 125 g/ha [6]	pest or weed control at 500 g/ha [6]	pest or weed control at 250 g/ha [7]	pest or weed control at 250 g/ha [8]	pest or weed control at 250 g/ha [9]	pest or weed control at 250 g/ha (rice (Oryra sativa))	pest or weed control at 125 g/ha ([11]; postemergence)	pest or weed control at 125 g/ha (Kochia (Kochia scoparia) [12]; postemergence)	pest or weed control at 125 g/ha ([13]; postemergence)	pest or weed control at 125 g/ha ([14]; postemergence)	further results
CN1C[C@H](c2ccc(C(F)(F)F)cc2)[C@@H](C(=O)Nc2ccccc2)C1=O [Compound 1253]	90%	100%	20%	60%	80%	80%	40%	60%	50%	80%	100%	100%	40%	100%	0%	0%	50%	60%	0%	80%	plant injury at 500 g/ha ([10]; Postemergence, visual injury, 0 to 100 scale (0 no effect, 100 complete control), approx. 10 d, read-out: Plant response rating, Wheat): 50%; pest or weed control at 500 g/ha ([11]; Postemergence, visual injury, 0 to 100 scale (0 no effect, 100 complete control), approx. 10 d, read-out: Plant response rating, Galium): 60%; pest or weed control at 500 g/ha (Kochia (Kochia scoparia) [12]; Postemergence, visual injury, 0 to 100 scale (0 no effect, 100 complete control), approx. 10 d, read-out: Plant response rating, Kochia): 70%; pest or weed control at 500 g/ha ([13]; Postemergence, visual injury, 0 to 100 scale (0 no effect, 100 complete control), approx. 10 d, read-out: Plant response rating, Pigweed): 30%; pest or weed control at 500 g/ha ([14]; Postemergence, visual injury, 0 to 100 scale (0 no effect, 100 complete control), approx. 10 d, read-out: Plant response rating, Foxtail, Giant): 90%
COc1cc([C@H]2CN(C)C(=O)[C@@H]2C(=O)Nc2ccccc2SC)cc(OC)c1OC [Compound 1218]	30%	100%	0%	0%	0%	0%	0%	0%	0%	0%	80%	90%	0%	40%	0%	0%	0%	0%	0%	0%	plant injury at 125 g/ha ([10]; 125 g ai/ha, postemergence, visual injury vs untreated controls after approx. 10 d, 0 = no effect, 100 = complete control, read-out: Wheat plant response rating (0 to 100 scale)): 0%; plant injury at 500 g/ha ([10]; postemergence, 0 to 100 scale, 0 is no effect, 100 is complete control, read-out: Wheat plant response rating): 0%; pest or weed control at 500 g/ha ([11]; postemergence, 0 to 100 scale, 0 is no effect, 100 is complete control, read-out: Galium plant response rating): 0%; pest or weed control at 500 g/ha (Kochia (Kochia scoparia) [12]; postemergence, 0 to 100 scale, 0 is no effect, 100 is complete control, read-out: Kochia plant response rating): 20%; pest or weed control at 500 g/ha ([13]; postemergence, 0 to 100 scale, 0 is no effect, 100 is complete control, read-out: Pigweed plant response rating): 0%; pest or weed control at 500 g/ha ([14]; postemergence, 0 to 100 scale, 0 is no effect, 100 is complete control, read-out: Foxtail, Giant plant response rating): 50%
